Experiments:
[1] = target: T1, NSUN4 (MTERF4-NSUN4 complex) (Homo sapiens, UniProt Q96CB9); assay: cryo-EM structure; assay type: binding; details: no RNA substrate in active site; co-purified, not added; complex bound to mt-LSU assembly intermediates
T1 construct: with Transcription termination factor 4, mitochondrial

[2] = target: T2, GTPBP5 (GTPBP5::FLAG; GTPBP5^IP) (Homo sapiens, UniProt Q9H4K7); assay: cryo-EM structure; assay type: binding; details: co-purified, not added; G-domain active site; switch I in state 2, bound to mt-LSU assembly intermediate
T2 construct: gene MTG2; Obg-domain and G-domain
T2 sequence (Q9H4K7 1-406): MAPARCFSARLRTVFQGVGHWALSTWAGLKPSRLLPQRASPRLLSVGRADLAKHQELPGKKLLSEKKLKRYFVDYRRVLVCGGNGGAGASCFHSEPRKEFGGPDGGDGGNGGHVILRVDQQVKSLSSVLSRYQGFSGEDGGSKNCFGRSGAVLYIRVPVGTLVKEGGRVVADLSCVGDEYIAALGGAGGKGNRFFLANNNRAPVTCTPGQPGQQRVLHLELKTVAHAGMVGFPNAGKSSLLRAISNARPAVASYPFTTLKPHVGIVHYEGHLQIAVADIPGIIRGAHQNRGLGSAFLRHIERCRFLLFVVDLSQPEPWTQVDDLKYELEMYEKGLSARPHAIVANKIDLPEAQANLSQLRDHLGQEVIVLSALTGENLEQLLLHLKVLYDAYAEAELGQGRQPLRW

T1 sequence (Q96CB9 26-384): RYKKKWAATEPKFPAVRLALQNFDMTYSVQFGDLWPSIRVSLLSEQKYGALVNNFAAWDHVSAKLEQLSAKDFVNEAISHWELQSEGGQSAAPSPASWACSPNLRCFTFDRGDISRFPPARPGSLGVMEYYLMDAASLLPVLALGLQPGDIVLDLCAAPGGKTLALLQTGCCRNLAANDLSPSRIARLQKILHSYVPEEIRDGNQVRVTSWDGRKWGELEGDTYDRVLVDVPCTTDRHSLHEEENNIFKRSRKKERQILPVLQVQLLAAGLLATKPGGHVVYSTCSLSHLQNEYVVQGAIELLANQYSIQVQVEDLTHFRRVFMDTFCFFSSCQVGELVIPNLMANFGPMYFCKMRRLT
T1 sequence (Q7Z6M4 43-381 partner): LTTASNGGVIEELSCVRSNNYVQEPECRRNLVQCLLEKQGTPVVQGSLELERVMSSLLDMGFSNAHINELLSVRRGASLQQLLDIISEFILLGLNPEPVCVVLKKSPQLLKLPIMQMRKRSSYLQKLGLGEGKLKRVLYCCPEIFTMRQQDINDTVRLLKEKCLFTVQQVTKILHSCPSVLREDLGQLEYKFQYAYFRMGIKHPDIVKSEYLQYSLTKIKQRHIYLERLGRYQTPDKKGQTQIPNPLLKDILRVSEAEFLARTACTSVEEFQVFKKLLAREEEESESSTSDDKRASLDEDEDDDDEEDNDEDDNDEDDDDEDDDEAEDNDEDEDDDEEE

With `C[S+](CC[C@H](N)C(=O)O)C[C@H]1O[C@@H](n2cnc3c(N)ncnc32)[C@H](O)[C@@H]1O` (some centres unmarked) [S-adenosyl-methionine] the cryo-EM structure [1] was “the methyl-donor S-adenosyl-methionine (SAM) is observed in the NSUN4 active site”.
For `Nc1nc2c(ncn2[C@@H]2O[C@H](COP(=O)(O)OP(=O)(O)OP(=O)(O)O)[C@@H](O)[C@H]2O)c(=O)[nH]1` [GTP], the cryo-EM structure [2] was “In our GTPBP5^IP structure, the G-domain has GTP in its active site”.
